Experimental data published in patent publication US20120129833A1, “CYCLIC KETOENOLS FOR THERAPY” (BAYER PHARMA AKTIENGESELLSCHAFT, priority 2010, published 2012).

Columns and labels:
[1] = molecular target: T1, recombinant human ACC1 (acetyl-CoA carboxylase 1) (Homo sapiens, UniProt Q13085); test: Human ACC1 enzyme assay (HTRF ADP detection); type: biochemical; settings: 50 μM ATP, 20 μM acetyl-CoA, 15 min pre-incubation, 20 min at 22° C.; read-out: ACC 1 IC50;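 also: ADP by-product quantified by competitive HTRF immunoassay with europium cryptate anti-ADP antibody and d2-labelled ADP, read after 1 h binding at 22 °C, enzyme near 2.5 ng/µl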
T1 construct: NM_198834, amino acids 39—end; FLAG (C); made in house; host or cells: baculovirus-transfected insect cells (Hi5)
Description: The basic principle of the assay is the measurement of adenosine diphosphate (ADP), which is formed as a by-product, by means of an HTRF®-based competitive immunoassay (HTRF=Homogeneous Time Resolved Fluorescence).
(§1) The amount of complex of d2-labelled ADP and europium cryptate-labelled anti-ADP antibody was then determined by measuring the resonance energy transfer of europium cryptate to d2.

[2] = molecular target: T2, ACC2 (acetyl-CoA carboxylase 2) (Homo sapiens, UniProt O00763); test: Human ACC2 enzyme assay (HTRF ADP detection); type: biochemical; settings: 20 μM acetyl-CoA, 15 min pre-incubation, 20 min at 22° C.; read-out: ACC 2 IC50
T2 construct: catalogue no; 50201, amino acids 39—end, expressed in baculovirus-transfected Sf9 insect cells; His (C); purchased BPS Bioscience (San Diego, Calif.) 50201; host or cells: baculovirus-transfected Sf9 insect cells
T2 sequence (O00763 39-2458 limits assumed): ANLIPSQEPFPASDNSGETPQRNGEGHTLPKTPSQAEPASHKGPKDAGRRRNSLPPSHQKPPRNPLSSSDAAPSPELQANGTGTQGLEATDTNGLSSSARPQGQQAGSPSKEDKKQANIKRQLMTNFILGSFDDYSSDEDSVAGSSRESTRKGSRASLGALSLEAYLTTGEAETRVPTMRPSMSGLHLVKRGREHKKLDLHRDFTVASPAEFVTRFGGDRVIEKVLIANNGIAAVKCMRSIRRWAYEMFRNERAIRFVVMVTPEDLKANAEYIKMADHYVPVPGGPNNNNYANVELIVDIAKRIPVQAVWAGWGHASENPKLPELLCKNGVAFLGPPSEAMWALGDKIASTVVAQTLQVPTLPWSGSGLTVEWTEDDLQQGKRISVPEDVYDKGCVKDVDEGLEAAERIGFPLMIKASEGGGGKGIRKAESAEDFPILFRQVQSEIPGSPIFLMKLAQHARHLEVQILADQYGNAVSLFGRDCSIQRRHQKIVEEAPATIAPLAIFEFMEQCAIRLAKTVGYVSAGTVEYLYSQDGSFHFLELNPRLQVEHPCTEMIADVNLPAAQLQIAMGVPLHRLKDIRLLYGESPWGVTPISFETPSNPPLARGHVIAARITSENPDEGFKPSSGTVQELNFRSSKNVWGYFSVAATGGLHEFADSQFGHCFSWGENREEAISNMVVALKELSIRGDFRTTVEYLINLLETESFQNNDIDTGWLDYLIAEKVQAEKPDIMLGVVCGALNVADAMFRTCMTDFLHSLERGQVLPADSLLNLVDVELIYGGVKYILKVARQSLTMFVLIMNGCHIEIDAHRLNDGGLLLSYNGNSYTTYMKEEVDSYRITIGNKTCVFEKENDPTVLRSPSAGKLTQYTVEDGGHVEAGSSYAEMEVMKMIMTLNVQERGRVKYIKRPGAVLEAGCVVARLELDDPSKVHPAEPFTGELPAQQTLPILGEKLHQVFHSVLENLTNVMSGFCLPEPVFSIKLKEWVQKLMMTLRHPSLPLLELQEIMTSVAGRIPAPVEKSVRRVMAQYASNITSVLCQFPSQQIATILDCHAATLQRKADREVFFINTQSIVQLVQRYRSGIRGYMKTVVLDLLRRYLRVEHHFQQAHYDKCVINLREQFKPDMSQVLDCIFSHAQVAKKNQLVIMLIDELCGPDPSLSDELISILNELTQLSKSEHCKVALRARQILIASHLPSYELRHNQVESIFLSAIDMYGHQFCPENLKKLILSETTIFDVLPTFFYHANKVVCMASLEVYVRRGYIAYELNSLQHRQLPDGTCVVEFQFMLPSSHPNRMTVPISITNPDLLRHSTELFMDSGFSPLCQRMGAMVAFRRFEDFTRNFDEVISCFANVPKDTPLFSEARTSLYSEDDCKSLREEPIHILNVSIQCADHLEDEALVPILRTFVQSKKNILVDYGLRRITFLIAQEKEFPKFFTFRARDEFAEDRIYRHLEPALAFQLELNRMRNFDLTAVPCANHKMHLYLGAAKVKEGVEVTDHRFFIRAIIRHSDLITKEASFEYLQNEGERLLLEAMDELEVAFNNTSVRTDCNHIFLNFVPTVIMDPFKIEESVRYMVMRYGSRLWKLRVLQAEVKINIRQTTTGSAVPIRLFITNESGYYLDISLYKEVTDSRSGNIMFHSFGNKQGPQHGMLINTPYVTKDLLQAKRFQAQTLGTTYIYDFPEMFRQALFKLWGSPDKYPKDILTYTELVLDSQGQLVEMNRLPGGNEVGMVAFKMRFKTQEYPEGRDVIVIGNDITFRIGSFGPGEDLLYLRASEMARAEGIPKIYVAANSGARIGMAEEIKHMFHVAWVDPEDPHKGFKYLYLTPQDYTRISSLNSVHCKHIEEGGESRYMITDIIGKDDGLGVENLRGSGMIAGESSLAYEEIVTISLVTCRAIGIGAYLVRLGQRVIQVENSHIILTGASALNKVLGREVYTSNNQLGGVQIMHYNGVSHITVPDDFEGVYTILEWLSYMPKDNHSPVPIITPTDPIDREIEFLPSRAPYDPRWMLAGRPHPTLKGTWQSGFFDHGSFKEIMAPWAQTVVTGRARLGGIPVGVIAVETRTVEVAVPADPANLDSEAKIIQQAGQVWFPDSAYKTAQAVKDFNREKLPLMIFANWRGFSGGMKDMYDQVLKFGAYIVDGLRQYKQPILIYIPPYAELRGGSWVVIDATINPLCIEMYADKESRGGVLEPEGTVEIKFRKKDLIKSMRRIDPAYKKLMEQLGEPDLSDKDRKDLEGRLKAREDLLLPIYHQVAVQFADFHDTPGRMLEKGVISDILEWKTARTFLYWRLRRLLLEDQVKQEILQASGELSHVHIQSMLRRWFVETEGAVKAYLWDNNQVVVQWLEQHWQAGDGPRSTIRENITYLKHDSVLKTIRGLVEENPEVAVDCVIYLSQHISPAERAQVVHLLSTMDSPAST
Description: The inhibitory activity of the substances of this invention with regard to acetyl-CoA carboxylase 2 (ACC2) was measured using the ACC2 assay described in the paragraphs below. The basic principle of the assay is the measurement of adenosine diphosphate (ADP), which is formed as a by-product, by means of an HTRF®-based competitive immunoassay (HTRF=Homogeneous Time Resolved Fluorescence).
as §1

Question: What does the source list for `COCC1CCCC2(C1)NC(=O)C(c1cc(-c3ccc(Cl)cc3)ccc1Cl)=C2O` (stereo not shown) [Example 1-52, 3-(4,4′-dichlorobiphenyl-3-yl)-4-hydroxy-7-(methoxymethyl)-1-azaspiro[4.5]dec-3-en-2-one]?
Answer: IC50 [1]: 1270 nM; IC50 [2]: > 20000 nM

Question: For `COCC1CCC2(CC1)NC(=O)C(c1c(C)ccc(-c3ccc(Cl)cc3)c1C)=C2O` (stereo not shown) [Example 1-53, 3-(4′-chloro-2,4-dimethylbiphenyl-3-yl)-4-hydroxy-8-(methoxymethyl)-1-azaspiro[4.5]dec-3-en-2-one], which IC50 [1] is on record?
Answer: Its IC50 is 506 nM.

Question: What about the IC50 [2] of the same molecule?
Answer: Its IC50 is 214 nM.

Question: `COCC1CCC2(CC1)NC(=O)C(c1cc(-c3ccc(Cl)cc3)ccc1Cl)=C2O` (stereo not shown) [Example 1-54, 3-(4,4′-dichlorobiphenyl-3-yl)-4-hydroxy-8-(methoxymethyl)-1-azaspiro[4.5]dec-3-en-2-one] was tested. Which IC50 [1] did it give?
Answer: The IC50 was 220 nM.

Question: And the IC50 [2]?
Answer: The IC50 was 1100 nM.

Question: Which IC50 [1] does the source give for `COCCC1CCCC2(C1)NC(=O)C(c1c(C)ccc(-c3ccc(Cl)cc3)c1C)=C2O` (stereo not shown) [Example 1-55, 3-(4′-chloro-2,4-dimethylbiphenyl-3-yl)-4-hydroxy-7-(2-methoxyethyl)-1-azaspiro[4.5]dec-3-en-2-one] here?
Answer: The IC50 was 918 nM.

Question: What about the IC50 [2] of the same molecule?
Answer: Its IC50 is 465 nM.

Question: Which results are given for `COCC1CCC2(CC1)NC(=O)C(c1cc(-c3ccc(Cl)cc3)ccc1C)=C2O` (stereo not shown) [Example 1-56, 3-(4′-chloro-4-methylbiphenyl-3-yl)-4-hydroxy-8-(methoxymethyl)-1-azaspiro[4.5]dec-3-en-2-one]?
Answer: IC50 [1]: 430 nM; IC50 [2]: 320 nM

Question: For `COCCC1CCC2(CC1)NC(=O)C(c1c(C)ccc(-c3ccc(Cl)cc3)c1C)=C2O` (stereo not shown) [Example 1-57, 3-(4′-chloro-2,4-dimethylbiphenyl-3-yl)-4-hydroxy-8-(2-methoxyethyl)-1-azaspiro[4.5]dec-3-en-2-one], which IC50 [1] is on record?
Answer: Its IC50 is 790 nM.

Question: What about the IC50 [2] of the same molecule?
Answer: The IC50 was 220 nM.

Question: `O=C1NC2(CCC3(CC2)OCCCO3)C(O)=C1c1cc(-c2ccc(Cl)cc2)ccc1Cl` [Example 1-58, 3-(4,4′-dichlorobiphenyl-3-yl)-4-hydroxy-9,13-dioxa-1-azadispiro[4.2.5.2]pentadec-3-en-2-one] was tested. Which IC50 [1] did it give?
Answer: Its IC50 is 362 nM.

Question: And the IC50 [2]?
Answer: Its IC50 is 11500 nM.

Question: `Cc1ccc(-c2ccc(Cl)cc2)cc1C1=C(O)C2(CCC3(CC2)OCCCO3)NC1=O` [Example 1-59, 3-(4′-chloro-4-methylbiphenyl-3-yl)-4-hydroxy-9,13-dioxa-1-azadispiro[4.2.5.2]pentadec-3-en-2-one] was tested. Which IC50 [1] did it give?
Answer: Its IC50 is 427 nM.

Question: And the IC50 [2]?
Answer: Its IC50 is 5200 nM.

Question: What does the source list for `Cc1ccc(-c2ccc(Cl)cc2)cc1C1=C(O)C2(CCC3(CC2)OCCO3)NC1=O` [Example 1-60, 11-(4′-chloro-4-methylbiphenyl-3-yl)-12-hydroxy-1,4-dioxa-9-azadispiro[4.2.4.2]tetradec-11-en-10-one]?
Answer: IC50 [1]: 237 nM; IC50 [2]: 2330 nM

Question: `O=C1NC2(CCC3(CC2)OCCO3)C(O)=C1c1cc(-c2ccc(Cl)cc2)ccc1Cl` [Example 1-61, 11-(4,4′-dichlorobiphenyl-3-yl)-12-hydroxy-1,4-dioxa-9-azadispiro[4.2.4.2]tetradec-11-en-10-one] was tested. Which IC50 [1] did it give?
Answer: The IC50 was 227 nM.

Question: And the IC50 [2]?
Answer: The IC50 was 3910 nM.

Question: `Cc1ccc(-c2ccc(Cl)cc2)cc1C1=C(O)C2(CCC3(CC2)OCC(C)O3)NC1=O` (stereo not shown) [Example 1-63, 11-(4′-chloro-4-methylbiphenyl-3-yl)-12-hydroxy-2-methyl-1,4-dioxa-9-azadispiro[4.2.4.2]tetradec-11-en-10-one] was tested. Which IC50 [1] did it give?
Answer: The IC50 was 391 nM.

Question: And the IC50 [2]?
Answer: The IC50 was 4220 nM.

Question: Which results are given for `Cc1ccc(-c2ccc(Cl)cc2)cc1C1=C(O)C2(CCC3(CC2)OC(C)C(C)O3)NC1=O` (stereo not shown) [Example 1-64, 11-(4′-chloro-4-methylbiphenyl-3-yl)-12-hydroxy-2,3-dimethyl-1,4-dioxa-9-azadispiro[4.2.4.2]tetradec-11-en-10-one]?
Answer: IC50 [1]: 985 nM; IC50 [2]: 16400 nM

Question: What does the source list for `CC1(C)COC2(CCC3(CC2)NC(=O)C(c2cc(-c4ccc(Cl)cc4)ccc2Cl)=C3O)OC1` [Example 1-65, 3-(4,4′-dichlorobiphenyl-3-yl)-4-hydroxy-11,11-dimethyl-9,13-dioxa-1-azadispiro[4.2.5.2]pentadec-3-en-2-one]?
Answer: IC50 [1]: 934 nM; IC50 [2]: 9470 nM

Question: How did the IC50 [1] turn out when `Cc1ccc(-c2ccc(Cl)cc2)cc1C1=C(O)C2(CCC3(CC2)OCC(C)CO3)NC1=O` (stereo not shown) [Example 1-66, 3-(4′-chloro-4-methylbiphenyl-3-yl)-4-hydroxy-1′-methyl-9,13-dioxa-1-azadispiro[4.2.5.2]pentadec-3-en-2-one] was run?
Answer: Its IC50 is 409 nM.

Question: And the IC50 [2]?
Answer: Its IC50 is 1540 nM.

Question: Which results are given for `Cc1ccc(-c2ccc(Cl)cc2)cc1C1=C(O)C2(CCC3(CC2)OCC(C)(C)CO3)NC1=O` [Example 1-67, 3-(4′-chloro-4-methylbiphenyl-3-yl)-4-hydroxy-11,11-dimethyl-9,13-dioxa-1-azadispiro[4.2.5.2]pentadec-3-en-2-one]?
Answer: IC50 [1]: 668 nM; IC50 [2]: 1440 nM

Question: Which IC50 [1] does the source give for `CC1COC2(CCC3(CC2)NC(=O)C(c2cc(-c4ccc(Cl)cc4)ccc2Cl)=C3O)O1` (stereo not shown) [Example 1-68, 11-(4,4′-dichlorobiphenyl-3-yl)-12-hydroxy-2-methyl-1,4-dioxa-9-azadispiro[4.2.4.2]tetradec-11-en-10-one] here?
Answer: Its IC50 is 489 nM.

Question: And the IC50 [2]?
Answer: Its IC50 is 4860 nM.

Question: With `CC1COC2(CCC3(CC2)NC(=O)C(c2cc(-c4ccc(Cl)cc4)ccc2Cl)=C3O)OC1` (stereo not shown) [Example 1-69, 3-(4,4′-dichlorobiphenyl-3-yl)-4-hydroxy-1′-methyl-9,13-dioxa-1-azadispiro[4.2.5.2]pentadec-3-en-2-one] as the molecule, how does the IC50 [1] read?
Answer: The IC50 was 647 nM.

Question: And the IC50 [2]?
Answer: The IC50 was 11000 nM.

Question: Which IC50 [1] does the source give for `Cc1ccc(-c2ccc(Cl)cc2)c(C)c1C1=C(O)C2(CCC3(CC2)OCCO3)NC1=O` [Example 1-70, 11-(4′-chloro-2,4-dimethylbiphenyl-3-yl)-12-hydroxy-1,4-dioxa-9-azadispiro[4.2.4.2]tetradec-11-en-10-one] here?
Answer: The IC50 was 675 nM.

Question: What about the IC50 [2] of the same molecule?
Answer: The IC50 was 1840 nM.

Question: What does the source list for `CC1OC2(CCC3(CC2)NC(=O)C(c2cc(-c4ccc(Cl)cc4)ccc2Cl)=C3O)OC1C` (stereo not shown) [Example 1-71, 11-(4,4′-dichlorobiphenyl-3-yl)-12-hydroxy-2,3-dimethyl-1,4-dioxa-9-azadispiro[4.2.4.2]tetradec-11-en-10-one]?
Answer: IC50 [1]: 661 nM; IC50 [2]: > 20000 nM

Question: How did the IC50 [1] turn out when `COC1CCCC2(C1)NC(=O)C(c1c(C)ccc(-c3ccc(Cl)cc3)c1C)=C2O` (stereo not shown) [Example 1-72, 3-(4′-chloro-2,4-dimethylbiphenyl-3-yl)-4-hydroxy-7-methoxy-1-azaspiro[4.5]dec-3-en-2-one] was run?
Answer: Its IC50 is 1180 nM.

Question: What about the IC50 [2] of the same molecule?
Answer: The IC50 was 2340 nM.

Question: For `CCOC1CCCC2(C1)NC(=O)C(c1c(C)ccc(-c3ccc(Cl)cc3)c1C)=C2O` (stereo not shown) [Example 1-73, 3-(4′-chloro-2,4-dimethylbiphenyl-3-yl)-7-ethoxy-4-hydroxy-1-azaspiro[4.5]dec-3-en-2-one], which IC50 [1] is on record?
Answer: The IC50 was 912 nM.

Question: And the IC50 [2]?
Answer: The IC50 was 4970 nM.

Question: `CCOC1CCC2(CC1)NC(=O)C(c1c(C)cc(C)c(-c3ccc(Cl)cc3)c1C)=C2O` (stereo not shown) [Example 1-75, 3-(4′-chloro-2,4,6-trimethylbiphenyl-3-yl)-8-ethoxy-4-hydroxy-1-azaspiro[4.5]dec-3-en-2-one] was tested. Which IC50 [1] did it give?
Answer: Its IC50 is 7970 nM.

Question: And the IC50 [2]?
Answer: Its IC50 is 376 nM.

Question: With `Cc1ccc(-c2ccc(Cl)cc2)cc1C1=C(O)[C@]2(CC[C@H](C)CC2)NC1=O` [Example 1-76, 3-(4′-chloro-4-methylbiphenyl-3-yl)-4-hydroxy-8-methyl-1-azaspiro[4.5]dec-3-en-2-one] as the molecule, how does the IC50 [1] read?
Answer: Its IC50 is 201 nM.

Question: What about the IC50 [2] of the same molecule?
Answer: Its IC50 is 233 nM.

Question: For `Cc1ccc(-c2ccc(Cl)cc2)cc1C1=C(O)C2(CCCCC2)NC1=O` [Example 1-77, 3-(4′-chloro-4-methylbiphenyl-3-yl)-4-hydroxy-1-azaspiro[4.5]dec-3-en-2-one], which IC50 [1] is on record?
Answer: Its IC50 is 327 nM.

Question: And the IC50 [2]?
Answer: Its IC50 is 860 nM.

Question: How did the IC50 [1] turn out when `Cc1ccc(-c2ccc(Cl)cc2)cc1C1=C(O)C(C)(C(C)C)NC1=O` (stereo not shown) [Example 1-78, 3-(4′-chloro-4-methylbiphenyl-3-yl)-4-hydroxy-5-methyl-5-(propan-2-yl)-1,5-dihydro-2H-pyrrol-2-one] was run?
Answer: The IC50 was 795 nM.

Question: What about the IC50 [2] of the same molecule?
Answer: The IC50 was 1730 nM.

Question: Which IC50 [1] does the source give for `CCOC1CCC2(CC1)NC(=O)C(c1cc(-c3cccc(Cl)c3)ccc1C)=C2O` (stereo not shown) [Example 1-79, 3-(3′-chloro-4-methylbiphenyl-3-yl)-8-ethoxy-4-hydroxy-1-azaspiro[4.5]dec-3-en-2-one] here?
Answer: Its IC50 is 848 nM.

Question: What about the IC50 [2] of the same molecule?
Answer: Its IC50 is over 20000 nM.

Question: What does the source list for `COC1CCC2(CC1)NC(=O)C(c1cc(-c3cc(F)ccc3F)ccc1C)=C2O` (stereo not shown) [Example 1-80, 3-(2′,5′-difluoro-4-methylbiphenyl-3-yl)-4-hydroxy-8-methoxy-1-azaspiro[4.5]dec-3-en-2-one]?
Answer: IC50 [1]: 695 nM; IC50 [2]: > 20000 nM

Question: `Cc1ccc(-c2ccc(Cl)cc2)cc1C1=C(O)C2(CCCC(C)C2)NC1=O` (stereo not shown) [Example 1-82, 3-(4′-chloro-4-methylbiphenyl-3-yl)-4-hydroxy-7-methyl-1-azaspiro[4.5]dec-3-en-2-one] was tested. Which IC50 [1] did it give?
Answer: Its IC50 is 542 nM.

Question: What about the IC50 [2] of the same molecule?
Answer: The IC50 was 433 nM.

Question: With `CCCC1CCC2(CC1)NC(=O)C(c1cc(-c3ccc(Cl)cc3)ccc1C)=C2O` (stereo not shown) [Example 1-83, 3-(4′-chloro-4-methylbiphenyl-3-yl)-4-hydroxy-8-propyl-1-azaspiro[4.5]dec-3-en-2-one] as the molecule, how does the IC50 [1] read?
Answer: Its IC50 is 459 nM.

Question: What about the IC50 [2] of the same molecule?
Answer: The IC50 was 349 nM.

Question: How did the IC50 [1] turn out when `Cc1ccc(-c2ccc(Cl)cc2)cc1C1=C(O)C2(CCCC2)NC1=O` [Example 1-85, 3-(4′-chloro-4-methylbiphenyl-3-yl)-4-hydroxy-1-azaspiro[4.4]non-3-en-2-one] was run?
Answer: Its IC50 is 340 nM.

Question: And the IC50 [2]?
Answer: The IC50 was 4000 nM.

Question: For `Cc1ccc(-c2ccc(Cl)cc2)cc1C1=C(O)C(C)(C2CC2)NC1=O` (stereo not shown) [Example 1-86, 3-(4′-chloro-4-methylbiphenyl-3-yl)-5-cyclopropyl-4-hydroxy-5-methyl-1,5-dihydro-2H-pyrrol-2-one], which IC50 [1] is on record?
Answer: Its IC50 is 541 nM.

Question: What about the IC50 [2] of the same molecule?
Answer: Its IC50 is 3300 nM.

Question: How did the IC50 [1] turn out when `CC[C@]1(OC)CC[C@@]2(CC1)NC(=O)C(c1c(C)ccc(-c3ccc(Cl)cc3)c1C)=C2O` [Example 1-88, (5r,8r)-3-(4′-chloro-2,4-dimethylbiphenyl-3-yl)-8-ethyl-4-hydroxy-8-methoxy-1-azaspiro[4.5]dec-3-en-2-one] was run?
Answer: The IC50 was 825 nM.

Question: And the IC50 [2]?
Answer: Its IC50 is 6900 nM.
